Results from patent USRE47475E1, “Selective agents for pain suppression” (WiSys Technology Foundation, Inc., priority 2002, dated 2019).

How the values were obtained:
[1] = target: T1, GABAA/α3 (α3β3γ2 GABAA receptor) (Homo sapiens, UniProt P18507+P34903); assay: competitive binding assay with [3H]flunitrazepam; conditions: Table 3; read-out: Binding Affinity at GABAA/α3
T1 construct: expressed in transfected cells
Method: (§1) Membranes were harvested with a Brandel cell harvester followed by three ice-cold washes onto polyethyleneimine-pretreated (0.3%) Whatman GF/C filters. Filters were dried overnight and then soaked in Ecoscint, a liquid scintillation cocktail (National Diagnostics; Atlanta, Ga.). Bound radioactivity was quantified by liquid scintillation counting. Membrane protein concentrations were determined using an assay kit from Bio-Rad (Hercules, Calif.) with bovine serum albumin as the standard.
as §1, with “The GABAA subunit selectivity of several compounds prepared as described above were determined using competitive binding assays. […] Membranes” for “Membranes”

[2] = target: T2, GABAA/α4 (α4β3γ2 GABAA receptor) (Homo sapiens, UniProt P18507+P48169); assay: competitive binding assay with [3H]flunitrazepam; conditions: Table 3; read-out: Binding Affinity at GABAA/α4
T2 construct: expressed in transfected cells
Method: as §1
as §1, with “The GABAA subunit selectivity of several compounds prepared as described above were determined using competitive binding assays. […] Membranes” for “Membranes”

[3] = target: T3, GABAA/α5 (α5β3γ2 GABAA receptor) (Homo sapiens, UniProt P18507+P31644); assay: competitive binding assay with [3H]flunitrazepam; conditions: Table 3; read-out: Binding Affinity at GABAA/α5
T3 construct: expressed in transfected cells
Method: as §1
as §1, with “The GABAA subunit selectivity of several compounds prepared as described above were determined using competitive binding assays. […] Membranes” for “Membranes”

[4] = target: T4, GABAA/α6 (α6β3γ2 GABAA receptor) (Homo sapiens, UniProt P18507+Q16445); assay: competitive binding assay with [3H]flunitrazepam; conditions: Table 3; read-out: Binding Affinity at GABAA/α6
T4 construct: expressed in transfected cells
Method: as §1
as §1, with “The GABAA subunit selectivity of several compounds prepared as described above were determined using competitive binding assays. […] Membranes” for “Membranes”

[5] = target: T5, GABAA/α2 (α2β3γ2 GABAA receptor) (Homo sapiens, UniProt P18507+P47869); assay: competitive binding assay with [3H]flunitrazepam; conditions: Table 3; read-out: Binding Affinity at GABAA/α2
T5 construct: expressed in transfected cells
Method: as §1
as §1, with “The GABAA subunit selectivity of several compounds prepared as described above were determined using competitive binding assays. […] Membranes” for “Membranes”

[6] = target: T6, GABAA/α1 (α1β3γ2 GABAA receptor) (Homo sapiens, UniProt P14867+P18507); assay: competitive binding assay with [3H]flunitrazepam; conditions: Table 3; read-out: Binding Affinity at GABAA/α1
T6 construct: expressed in transfected cells
Method: as §1
as §1, with “The GABAA subunit selectivity of several compounds prepared as described above were determined using competitive binding assays. […] Membranes” for “Membranes”

seizures = conditions: rats, even orally; cited from earlier work

| SMILES | Ki [1] | Ki [2] | Ki [3] | Ki [4] | Ki [5] | Ki [6] | anticonvulsant activity of the sole metabolite (seizures) |
| --- | --- | --- | --- | --- | --- | --- | --- |
| C#Cc1ccc2c(c1)C(c1ccccc1)=NCC(=O)N2C [QB-II-066, 1-Methyl-7-acetyleno-5-phenyl-1,3-dihydro-benzo[e]-1,4-diazepin-2-one] | 47.4 nM | > 1000 nM | 6.8 nM | > 1000 nM | 42.1 nM | 76.3 nM |  |
| C#Cc1ccc2c(c1)C(c1ccccn1)=NCc1c(C(=O)O)ncn1-2 [HZ-166 acid] |  |  |  |  |  |  | anticonvulsant |
